The record followed here is paper PMC6301967, “Molecular comparison of Neanderthal and Modern Human adenylosuccinate lyase” (Scientific Reports, 2018).

Data set [1] concerns the target T1, hADSL (modern human adenylosuccinate lyase) (Homo sapiens, UniProt P30566).
T1 construct: gene ADSL; N-terminal thrombin-cleavable His tag (pET-14b), E. coli Rosetta2 (DE3); tag cut, but kept for the domain 3 mutants; homotetramer; Val429
T1 sequence (P30566 1-484): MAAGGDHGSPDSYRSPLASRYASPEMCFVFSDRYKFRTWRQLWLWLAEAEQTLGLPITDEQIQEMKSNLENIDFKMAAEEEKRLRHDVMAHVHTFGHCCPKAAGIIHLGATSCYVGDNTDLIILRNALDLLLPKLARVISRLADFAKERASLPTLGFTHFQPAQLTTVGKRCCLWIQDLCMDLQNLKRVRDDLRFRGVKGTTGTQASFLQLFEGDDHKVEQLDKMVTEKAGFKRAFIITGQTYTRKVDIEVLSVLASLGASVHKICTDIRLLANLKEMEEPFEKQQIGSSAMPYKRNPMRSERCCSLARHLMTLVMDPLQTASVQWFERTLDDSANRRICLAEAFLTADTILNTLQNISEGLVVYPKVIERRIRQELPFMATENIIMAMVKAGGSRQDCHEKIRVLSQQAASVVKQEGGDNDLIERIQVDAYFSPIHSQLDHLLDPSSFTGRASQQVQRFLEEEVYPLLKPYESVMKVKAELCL
Description: small angle X-ray scattering. The class given is binding. The conditions noted are these: 1 mM product(s), with fumarate; 20 °C; no curve change with AICAR alone.

Data set [2] concerns the target T1, hADSL (modern human adenylosuccinate lyase). The data set can be described thus: isothermal titration calorimetry. The class given is binding. (In general: ITC needs no label: the signal is the heat of the interaction.)
Data set [3] has as its target T2, nADSL (Neanderthal adenylosuccinate lyase).
T2 construct: gene ADSL; Neanderthal (ancestral Ala429) variant, equals human ADSL with V429A; N-terminal thrombin-cleavable His tag (pET-14b), cut; E. coli Rosetta2 (DE3); homotetramer
The data set can be described thus: isothermal titration calorimetry. The settings on record: 10 mM HEPES pH 7.5, 100 mM NaCl, 1 mM DTT, 20 °C; 90 µM protein in cell. The class given is binding, Homo sapiens neanderthalensis.

The test system of data set [4] is T2, nADSL (Neanderthal adenylosuccinate lyase). Description: absorbance at […] nm, SAMP breakdown. The settings on record: forward reaction, room temperature; positive cooperativity, Hill coefficient 1.8; read-out: K0.5. The class given is biochemical, Homo sapiens neanderthalensis.
Data set [5] shares this test system. Description: absorbance at […] nm, SAMP formation. It is filed as biochemical, Homo sapiens neanderthalensis. The conditions noted are these: reverse reaction, 1 mM AMP, room temperature; Michaelis-Menten fit.
In data set [6] the target is T1, hADSL (modern human adenylosuccinate lyase). The data set can be described thus: absorbance at […] nm, SAMP formation. The class given is biochemical. The conditions noted are these: reverse reaction, 1 mM AMP, room temperature; Michaelis-Menten fit.
Data set [7] deals with the molecule itself. Description: SEC; Superdex 200 in 10 mM HEPES pH 7.5, 100 mM NaCl, 1 mM DTT; last step of the purification; single peak. A general note: SEC sorts molecules by how far they enter the pores of the column.
Substrate in the data set “purified protein”: O=C(O)C[C@H](Nc1ncnc2c1ncn2[C@@H]1O[C@H](COP(=O)(O)O)[C@@H](O)[C@H]1O)C(=O)O
The data set can be described thus: purified protein. The class given is biochemical, Homo sapiens. The settings on record: room temperature.

Data set [8] concerns the molecule itself. The data set can be described thus: crystal structure; nADSL apo (1.7 Å), with AMP/fumarate (2.3 Å) and with AICAR/fumarate; vapour diffusion, 10 mg/mL protein; homotetramer.
Where [9] appears, read: His tag not cleaved, 0.01 mg/mL enzyme, cooperative model fit.

Usually Kd stands for a measure of binding affinity in units of concentration. The low end stands for higher affinity, the high end for lower affinity. What is called stoichiometry N is a count of units in the complex or per binding partner.

In the case of `NC(=O)c1ncn([C@@H]2O[C@H](COP(=O)(O)O)[C@@H](O)[C@H]2O)c1N` [AICAR], the “small angle X-ray scattering” value in [1] is recorded as “addition of both AMP/fumarate or AICAR/fumarate to the protein results in a similar altered scattering”.

With `Nc1ncnc2c1ncn2[C@@H]1O[C@H](COP(=O)(O)O)[C@@H](O)[C@H]1O` [AMP], the Kd in data set [2] and in data set [3] was around 25 µM throughout.

Consider `O=C(O)C[C@H](Nc1ncnc2c1ncn2[C@@H]1O[C@H](COP(=O)(O)O)[C@@H](O)[C@H]1O)C(=O)O` [SAMP], for which the Km in [4] worked out at 1.1 µM.

Turning to `O=C(O)/C=C/C(=O)O` [fumarate], the results for the Km in [5] and in data set [6] were 66 µM and 80 µM, respectively.

B1: modern human adenylosuccinate lyase (enzyme, UniProt P30566 1-484, looked up)
chain: MAAGGDHGSPDSYRSPLASRYASPEMCFVFSDRYKFRTWRQLWLWLAEAEQTLGLPITDEQIQEMKSNLENIDFKMAAEEEKRLRHDVMAHVHTFGHCCPKAAGIIHLGATSCYVGDNTDLIILRNALDLLLPKLARVISRLADFAKERASLPTLGFTHFQPAQLTTVGKRCCLWIQDLCMDLQNLKRVRDDLRFRGVKGTTGTQASFLQLFEGDDHKVEQLDKMVTEKAGFKRAFIITGQTYTRKVDIEVLSVLASLGASVHKICTDIRLLANLKEMEEPFEKQQIGSSAMPYKRNPMRSERCCSLARHLMTLVMDPLQTASVQWFERTLDDSANRRICLAEAFLTADTILNTLQNISEGLVVYPKVIERRIRQELPFMATENIIMAMVKAGGSRQDCHEKIRVLSQQAASVVKQEGGDNDLIERIQVDAYFSPIHSQLDHLLDPSSFTGRASQQVQRFLEEEVYPLLKPYESVMKVKAELCL
notes: adenylosuccinate lyase (ADSL), modern human (Val429); Expressed from pET-14b with a thrombin-cleavable N-terminal histidine tag; also called hADSL; native hADSL; source: E. coli Rosetta2 (DE3), purified (HisTrap, thrombin cleavage, benzamidine-sepharose, Superdex 200); not shown: histidine tag, N-terminal, cleaved
B1: the “stoichiometry N” value in [7] was determined as 4. Further, the K0.5 in the data set “purified protein” (forward reaction, positive cooperativity, Hill coefficient 1.6) amounted to 1.1 µM.

B2: hADSL (modern human adenylosuccinate lyase) (Homo sapiens; D422Y) (protein)
chain: MAAGGDHGSPDSYRSPLASRYASPEMCFVFSDRYKFRTWRQLWLWLAEAEQTLGLPITDEQIQEMKSNLENIDFKMAAEEEKRLRHDVMAHVHTFGHCCPKAAGIIHLGATSCYVGDNTDLIILRNALDLLLPKLARVISRLADFAKERASLPTLGFTHFQPAQLTTVGKRCCLWIQDLCMDLQNLKRVRDDLRFRGVKGTTGTQASFLQLFEGDDHKVEQLDKMVTEKAGFKRAFIITGQTYTRKVDIEVLSVLASLGASVHKICTDIRLLANLKEMEEPFEKQQIGSSAMPYKRNPMRSERCCSLARHLMTLVMDPLQTASVQWFERTLDDSANRRICLAEAFLTADTILNTLQNISEGLVVYPKVIERRIRQELPFMATENIIMAMVKAGGSRQDCHEKIRVLSQQAASVVKQEGGDNYLIERIQVDAYFSPIHSQLDHLLDPSSFTGRASQQVQRFLEEEVYPLLKPYESVMKVKAELCL
notes: N-terminal thrombin-cleavable His tag (pET-14b), E. coli Rosetta2 (DE3); tag cut, but kept for the domain 3 mutants; homotetramer; Val429
In the case of B2, the K0.5 in the data set “purified protein” (setting [9]) was found to be 0.36 ± 0.03 µM.

B3: Neanderthal adenylosuccinate lyase (enzyme)
chain: MAAGGDHGSPDSYRSPLASRYASPEMCFVFSDRYKFRTWRQLWLWLAEAEQTLGLPITDEQIQEMKSNLENIDFKMAAEEEKRLRHDVMAHVHTFGHCCPKAAGIIHLGATSCYVGDNTDLIILRNALDLLLPKLARVISRLADFAKERASLPTLGFTHFQPAQLTTVGKRCCLWIQDLCMDLQNLKRVRDDLRFRGVKGTTGTQASFLQLFEGDDHKVEQLDKMVTEKAGFKRAFIITGQTYTRKVDIEVLSVLASLGASVHKICTDIRLLANLKEMEEPFEKQQIGSSAMPYKRNPMRSERCCSLARHLMTLVMDPLQTASVQWFERTLDDSANRRICLAEAFLTADTILNTLQNISEGLVVYPKVIERRIRQELPFMATENIIMAMVKAGGSRQDCHEKIRVLSQQAASVVKQEGGDNDLIERIQADAYFSPIHSQLDHLLDPSSFTGRASQQVQRFLEEEVYPLLKPYESVMKVKAELCL
notes: Expressed from pET-14b with a thrombin-cleavable N-terminal histidine tag; also called nADSL; ancestral Ala429 ADSL variant; source: E. coli Rosetta2 (DE3), purified (HisTrap, thrombin cleavage, benzamidine-sepharose, Superdex 200); not shown: histidine tag, N-terminal, cleaved
Regarding B3, in data set [8], the “stoichiometry N” value is 4.

B4: hADSL (modern human adenylosuccinate lyase) (Homo sapiens; R426H) (protein)
chain: MAAGGDHGSPDSYRSPLASRYASPEMCFVFSDRYKFRTWRQLWLWLAEAEQTLGLPITDEQIQEMKSNLENIDFKMAAEEEKRLRHDVMAHVHTFGHCCPKAAGIIHLGATSCYVGDNTDLIILRNALDLLLPKLARVISRLADFAKERASLPTLGFTHFQPAQLTTVGKRCCLWIQDLCMDLQNLKRVRDDLRFRGVKGTTGTQASFLQLFEGDDHKVEQLDKMVTEKAGFKRAFIITGQTYTRKVDIEVLSVLASLGASVHKICTDIRLLANLKEMEEPFEKQQIGSSAMPYKRNPMRSERCCSLARHLMTLVMDPLQTASVQWFERTLDDSANRRICLAEAFLTADTILNTLQNISEGLVVYPKVIERRIRQELPFMATENIIMAMVKAGGSRQDCHEKIRVLSQQAASVVKQEGGDNDLIEHIQVDAYFSPIHSQLDHLLDPSSFTGRASQQVQRFLEEEVYPLLKPYESVMKVKAELCL
notes: as for B2
For the molecule B4, the K0.5 in the data set “purified protein” (setting [9]) is on record as 0.75 ± 0.06 µM.
